What all share (assay): mycelial growth from inoculum plugs in amended basal nutrient solution
The subject of test [1] is Pythium aphanidermatum, Pythium irregular, Pythium ultimum. The test is classed as cell-based, Pythium species. As to conditions: basal nutrient solution amended with fungicide control; 48 hours. The protocol: (§1) The efficacy of the garlic extract was tested against nine (9) soil-borne fungi that cause root and lower stem rots of plants. The fungal pathogens included: Pythium aphanidermatum, Pythium irregular, Pythium ultimum, Phytophthora capsici, Phytophthora cinnamomi, Phytophthora nicotiana, Rhizoctonia solani, Fusarium oxysporum fsp. lycopersici, Fusarium oxysporum f.sp. spinaciae, and Thielaviopsis basicola. All isolates used in this investigation were known to be pathogenic to various cultivated plant species.
(§2) All isolates of Pythium aphanidermatum, Pythium irregular, Pythum ultimum, Phytophthora capsici, Phytophthora cinnamomi, Phytophthora nicotiana, Rhizoctonia solani, Fusarium oxysporum f.sp. lycopersici, Fusarium oxysporum f.sp. spinaciae were grown on standard corn meal agar (CMA) for 8 to 9 days. Plugs from inoculum plates were taken using a #4 cork borer (5 mm diameter). Inoculum plugs were placed into 5-cm sterile plastic petri dishes containing 10 ml of a basal nutrient solution that consisted of 60% (v/v) clarified V-8 juice and sterile distilled water (SDW). Basal nutrient solutions were amended with the appropriate treatments. […] Cultures were placed into a growth chamber and maintained in the dark at 22(C(1(C. After 48 hours, mycelial growth (if any was visible) from culture plugs was measured.

Test [2] concerns Phytophthora capsici, Phytophthora cinnamomi, Phytophthora nicotiana. The test is classed as cell-based, Phytophthora species. The note with it: basal nutrient solution amended with fungicide control; 48 hours. As to the method: as §1, §2
For a further test, the system named is Rhizoctonia solani. The format is cell-based. As to conditions: fungicide control. The protocol:
as §1, §2

Regarding `COCC(=O)N(c1c(C)cccc1C)C(C)C(=O)OC` (stereo not shown) [metalaxyl], the “growth from the inoculum plugs” value in test [1] and in test [2] was “none” each time.

On to `O=[N+]([O-])c1c(Cl)c(Cl)c(Cl)c(Cl)c1Cl` [PCNB], for which the “growth on amended basal nutrient solution” value was “limited amount of growth” in the test with Rhizoctonia solani (first replication (inappropriate concentration)) and “did not grow” with Rhizoctonia solani (second replication).
